ChEMBL document CHEMBL1149774, “Synthesis of N-(5,7-diamino-3-phenyl-quinoxalin-2-yl)-3,4,5-substituted anilines and N-[4[(5,7-diamino-3-phenylquinoxalin-2-yl)amino]benzoyl]-l-glutamic acid diethyl ester: evaluation of in vitro anti-cancer and anti-folate activities” (Eur J Med Chem, 2008)

Tests used:
Format in all cases: functional
HOP-62 = assay: Growth inhibition of human HOP62 cells after 48 hrs by SRB staining method; conditions: HOP-62, 48 h
NCI-H226 = assay: Growth inhibition of human NCI-H226 cells after 48 hrs by SRB staining method; conditions: NCI-H226, 48 h
NCI-H23 = assay: Growth inhibition of human NCI-H23 cells after 48 hrs by SRB staining method; conditions: NCI-H23, 48 h
NCI-H522 = assay: Growth inhibition of human NCI-H522 cells after 48 hrs by SRB staining method; conditions: NCI-H522, 48 h
HCT-116 = assay: Growth inhibition of human HCT116 cells after 48 hrs by SRB staining method; conditions: HCT-116, 48 h
HCT-15 = assay: Growth inhibition of human HCT15 cells after 48 hrs by SRB staining method; conditions: HCT-15, 48 h
SF-295 = assay: Growth inhibition of human SF295 cells after 48 hrs by SRB staining method; conditions: SF-295, 48 h
SNB-19 = assay: Growth inhibition of human SNB19 cells after 48 hrs by SRB staining method; conditions: SNB-19, 48 h
U-251 = assay: Growth inhibition of human U251 cells after 48 hrs by SRB staining method; conditions: U-251, 48 h
SK-MEL-2 = assay: Growth inhibition of human SK-MEL-2 cells after 48 hrs by SRB staining method; conditions: SK-MEL-2, 48 h
UACC-62 = assay: Growth inhibition of human UACC62 cells after 48 hrs by SRB staining method; conditions: UACC-62, 48 h
IGROV-1 = assay: Growth inhibition of human IGROV1 cells after 48 hrs by SRB staining method; conditions: IGROV-1, 48 h
OVCAR-3 = assay: Growth inhibition of human OVCAR-3 cells after 48 hrs by SRB staining method; conditions: OVCAR-3, 48 h
OVCAR-4 = assay: Growth inhibition of human OVCAR4 cells after 48 hrs by SRB staining method; conditions: OVCAR-4, 48 h
OVCAR-5 = assay: Growth inhibition of human OVCAR5 cells after 48 hrs by SRB staining method; conditions: OVCAR-5, 48 h
786-0 = assay: Growth inhibition of human 786-0 cells after 48 hrs by SRB staining method; conditions: 786-0, 48 h
ACHN = assay: Growth inhibition of human ACHN cells after 48 hrs by SRB staining method
CAKI-1 = assay: Growth inhibition of human CAKI1 cells after 48 hrs by SRB staining method; conditions: CAKI-1, 48 h
RXF 393 = assay: Growth inhibition of human RXF393 cells after 48 hrs by SRB staining method; conditions: RXF 393, 48 h
SN12C = assay: Growth inhibition of human SN12C cells after 48 hrs by SRB staining method
TK-10 = assay: Growth inhibition of human TK10 cells after 48 hrs by SRB staining method; conditions: TK-10, 48 h
UO-31 = assay: Growth inhibition of human UO31 cells after 48 hrs by SRB staining method; conditions: UO-31, 48 h
PC-3 = assay: Growth inhibition of human PC3 cells after 48 hrs by SRB staining method; conditions: PC-3, 48 h
DU-145 = assay: Growth inhibition of human DU145 cells after 48 hrs by SRB staining method; conditions: DU-145, 48 h
NCI/ADR-RES = assay: Growth inhibition of human NCI/ADR-RES cells after 48 hrs by SRB staining method
[1] = Growth inhibition of human HS 578T cells after 48 hrs by SRB staining method
SW-620 = assay: Growth inhibition of human SW620 cells after 48 hrs by SRB staining method; conditions: SW-620, 48 h
SF-268 = assay: Growth inhibition of human SF268 cells after 48 hrs by SRB staining method; conditions: SF-268, 48 h
HL-60 = assay: Growth inhibition of human HL60 cells after 48 hrs by SRB staining method; conditions: HL-60, 48 h
K562 = assay: Growth inhibition of human K562 cells after 48 hrs by SRB staining method; conditions: K562, 48 h
RPMI-8226 = assay: Growth inhibition of human RPMI8226 cells after 48 hrs by SRB staining method; conditions: RPMI-8226, 48 h
EKVX = assay: Growth inhibition of human EKVX cells after 48 hrs by SRB staining method
[2] = read-out: pLC50 (the source's name) (converted)

Nc1cc(N)c2nc(-c3ccccc3)c(Nc3ccc(F)cc3)nc2c1
GI50 (HOP-62): 38 µM
TGI (HOP-62; read-out: pTGI (converted)): > 100 µM
GI50 (NCI-H226): 17.8 µM
TGI (NCI-H226; read-out: pTGI (converted)): 47.9 µM
GI50 (NCI-H23): 22.4 µM
TGI (NCI-H23; read-out: pTGI (converted)): 49 µM
GI50 (NCI-H522): > 100 µM
TGI (NCI-H522; read-out: pTGI (converted)): > 100 µM
GI50 (HCT-116): 20 µM
TGI (HCT-116; read-out: pTGI (converted)): > 100 µM
GI50 (HCT-15): 12.6 µM
TGI (HCT-15; read-out: pTGI (converted)): 38 µM
GI50 (SF-295): 14.5 µM
TGI (SF-295; read-out: pTGI (converted)): 32.4 µM
GI50 (SNB-19): 21.9 µM
TGI (SNB-19; read-out: pTGI (converted)): 39.8 µM
GI50 (U-251): 5.62 µM
TGI (U-251; read-out: pTGI (converted)): 20 µM
GI50 (SK-MEL-2): 29.5 µM
TGI (SK-MEL-2; read-out: pTGI (converted)): > 100 µM
GI50 (UACC-62): 16.2 µM
TGI (UACC-62; read-out: pTGI (converted)): 31.6 µM
GI50 (IGROV-1): 16.6 µM
TGI (IGROV-1; read-out: pTGI (converted)): > 100 µM
GI50 (OVCAR-3): 4.68 µM
TGI (OVCAR-3; read-out: pTGI (converted)): 17.8 µM
GI50 (OVCAR-4): 13.5 µM
TGI (OVCAR-4; read-out: pTGI (converted)): 49 µM
GI50 (OVCAR-5): 38 µM
TGI (OVCAR-5; read-out: pTGI (converted)): > 100 µM
GI50 (786-0): 17.4 µM
CC50 (786-0; [2]): > 100 µM
TGI (786-0; read-out: pTGI (converted)): 53.7 µM
GI50 (ACHN): 10.2 µM
CC50 (ACHN; [2]): 49 µM
TGI (ACHN; read-out: pTGI (converted)): 22.4 µM
GI50 (CAKI-1): 19.1 µM
CC50 (CAKI-1; [2]): 85.1 µM
TGI (CAKI-1; read-out: pTGI (converted)): 40.7 µM
GI50 (RXF 393): 8.71 µM
CC50 (RXF 393; [2]): 85.1 µM
TGI (RXF 393; read-out: pTGI (converted)): 28.8 µM
GI50 (SN12C): 15.8 µM
CC50 (SN12C; [2]): 74.1 µM
TGI (SN12C; read-out: pTGI (converted)): 33.9 µM
GI50 (TK-10): 17.4 µM
CC50 (TK-10; [2]): 74.1 µM
TGI (TK-10; read-out: pTGI (converted)): 35.5 µM
GI50 (UO-31): 17 µM
CC50 (UO-31; [2]): > 100 µM
TGI (UO-31; read-out: pTGI (converted)): 61.7 µM
GI50 (PC-3): 11.7 µM
CC50 (PC-3; [2]): > 100 µM
TGI (PC-3; read-out: pTGI (converted)): > 100 µM
GI50 (DU-145): 12 µM
CC50 (DU-145; [2]): 66.1 µM
TGI (DU-145; read-out: pTGI (converted)): 28.2 µM
GI50 (NCI/ADR-RES): 24 µM
CC50 (NCI/ADR-RES; [2]): > 100 µM
TGI (NCI/ADR-RES; read-out: pTGI (converted)): 57.5 µM
GI50 [1]: 19.1 µM
CC50 [1, 2]: > 100 µM
TGI ([1]; read-out: pTGI (converted)): 58.9 µM
GI50 (SW-620): 13.5 µM
CC50 (SW-620; [2]): > 100 µM
TGI (SW-620; read-out: pTGI (converted)): 38.9 µM
GI50 (SF-268): 13.2 µM
CC50 (SF-268; [2]): > 100 µM
TGI (SF-268; read-out: pTGI (converted)): 40.7 µM
GI50 (HL-60): 11.2 µM
CC50 (HL-60; [2]): > 100 µM
TGI (HL-60; read-out: pTGI (converted)): > 100 µM
GI50 (K562): 5.01 µM
CC50 (K562; [2]): > 100 µM
TGI (K562; read-out: pTGI (converted)): > 100 µM
GI50 (RPMI-8226): 4.68 µM
CC50 (RPMI-8226; [2]): > 100 µM
TGI (RPMI-8226; read-out: pTGI (converted)): 34.7 µM
GI50 (EKVX): 12 µM
CC50 (EKVX; [2]): 75.9 µM
TGI (EKVX; read-out: pTGI (converted)): 30.2 µM
